Patent US5804576A, “Derivatives of 5-androsten-17-ones and 5-androstan-17-ones” (Research Corporation Technologies, Inc., priority 1986, dated 1998)

Assays:
[1] = test system: rat uterus; mouse seminal vesicle plus prostate; experiment: Sex steroid hormonal or anti-hormonal activity (estrogenic, anti-estrogenic, androgenic, anti-androgenic); conditions: in vivo
Description: Female CD rats, 26-27 days old, were injected subcutaneously for 3 days with one of the compounds of the present invention at 60 mg/kg in propylene glycol. Controls received propylene glycol alone. On the 4th day the rats were killed and the uteri were dissected out and weighed. The results are given below:
(§1) (a) Male A/J mice (5 weeks old) were obtained from the Jackson Laboratory and were housed in polycarbonate cages (5 mice/cage) in animal quarters maintained at 24°[…] C. with 12 hours of light and 12 hours of darkness each day. One week after arrival, the mice were placed on a chow diet containing one of the test compounds of the present invention at 0.36%. After 4 weeks of treatment, the above mice were killed, and the seminal vesicles and prostate glands were dissected out and weighed.

[2] = molecular target: T1, purified bovine adrenal G6PDH (Bos taurus, UniProt F1MMK2); experiment: Inhibition of purified bovine adrenal G6PDH; type: biochemical; conditions: for inhibition at 1 µM: Conc. 1 μm; for inhibition at 1 µM / inhibition at 10 µM: read-out: Percent Inhibition (G6PDH); for inhibition at 10 µM: Conc. 10 μm
T1 construct: full-length, wild type, no tag
Source text: The compounds listed below are screened as inhibitors of purified bovine adrenal G6PDH activity as one predictor of cancer preventive action. The assay for testing the inhibition of purified bovine adrenal G6PDH is according to the procedure by Oertel, G. W. and Rebelein, I. in Biochem. Biophys. Acta, 184, 459-460 (1969). The results are given below in Table I:
Both of the above tests, i.e., the inhibition of mammalian glucose-6-phosphate dehydrogenase (G6PDH) and the inhibition of tumor promoter (TPA) stimulation of ^3 H-thymidine incorporation in mouse epidermis are recognized as indicators of cancer prophylactic activity. The following Table compares the efficacy of representative compounds of the present invention in these two tests with that of DHEA: […]

[3] = test system: TPA (Tumor Promoter) Stimulation of Mouse Epidermal DNA; experiment: Inhibition of TPA stimulation of mouse epidermal DNA synthesis (3H-thymidine incorporation), oral; type: in vivo, mouse (ICR male); conditions: oral, single administration
Source text: Synthesis rate by orally administered steroids.
The inhibition of tumor promoter stimulation of mouse epidermal DNA synthesis rate by steroids may also contribute to cancer preventive activity. The following assay is used:
ICR male mice (7-9 weeks old) were shaved on the back 1-2 days before use. Only mice showing no hair regrowth were used. Animals were orally intubated with a particular steroid suspended by homogenization in sesame oil or with sesame oil alone (controls). One hour later TPA (10 μg in 0.2 ml of acetone) or acetone vehicle was applied topically to the shaved skin. Twenty hours later, mice were injected i.p. with 60 μCi of ^3 H-thymidine 20 minutes before sacrifice. The animals were killed by cervical dislocation and the residual hair was removed with a depilatory agent. Epidermal scrapings were prepared according to the procedures of Hennings et al. (Cancer Res. 28, 53, 1968), homogenized in distilled water at 4° C., and the macromolecules precipitated with 0.4N trichloroacetic acid (TCA). Following 6 washes with absolute ethanol at room temperature, the nucleic acids were hydrolyzed with 0.5N TCA at 70° C. for 5 minutes. The hydrolysate (0.2 ml aliquots) were counted in an Intertechnique scintillation counter and assayed for DNA by the diphenylamine reaction.
The data are expressed as counts per minute (cpm) of tritium per μg of DNA.
A similar oral dose-response experiment with compound 16 and DHEA was performed.
Both of the above tests, i.e., the inhibition of mammalian glucose-6-phosphate dehydrogenase (G6PDH) and the inhibition of tumor promoter (TPA) stimulation of ^3 H-thymidine incorporation in mouse epidermis are recognized as indicators of cancer prophylactic activity. The following Table compares the efficacy of representative compounds of the present invention in these two tests with that of DHEA:
(§2) Male ICR mice were orally intubated with steroid suspended in sesame oil (0.5 ml/mouse) at the indicated dose. Mice not receiving steroid were given sesame oil alone. One hour later mice received topical application of TPA and 20 hours later the rate of ^3 H-thymidine incorporation into the epidermis was determined as described in Table 4.
as §2, with “TPA,” for “TPA”

[4] = test system: [3H]DMBA binding to skin DNA; experiment: [3H]DMBA binding to skin DNA, oral steroid; type: in vivo, mouse (male A/J); conditions: 12 hours
Description: (§3) Male A/J mice were orally intubated with steroid suspended in sesame oil (0.5 ml/mouse) at the indicated dose. Mice not receiving steroid were given sesame oil alone. Food restricted mice received approximately 60% of food of Ad libitum fed for two weeks. One hour after oral intubation, topical [^3 H]DMBA was applied to the skin, and the amount bound to DNA was determined 12 hours later as described in Table 4.
as §3, with “alone.” for “alone. Food restricted mice received approximately 60% of food of Ad libitum fed for two weeks.”

[5] = Anti-obesity test (body weight, food consumption); type: in vivo, mouse (male A/J); conditions: for anti-weight effect (in words): 400 mg/kg repeated (DHEA), cancer preventive dosages (19, 20); for weekly weight (Table 13): 0.54% in food; for mean weekly weight ± S.D.: 0.36% of diet, n = 5
Description: Male A/J mice (5 weeks old) were obtained from the Jackson Laboratory and were housed in polycarbonate cages (5 mice/cage) in animal quarters maintained at 24°±1° C. with 12 hours of light and 12 hours of darkness each day. One week after arrival, the mice were placed on a chow diet containing varying concentrations of DHEA or other steroid. Animals were weighed weekly; food consumption was determined weekly by subtracting the amount of food remaining in the cage from the amount added.
Male A/J (5 weeks old) were obtained from the Jackson Laboratory and were housed in polycarbonate cages (5 mice/cage) in animal quarters maintained at 24°±1° C. with 12 hours of light and 12 hours of darkness each day. One week after arrival, the mice were placed on a diet containing either DHEA, 19, or without steroid. Animals were weighed weekly. The concentration of DHEA or 19 used in the food was 0.54%.
Male A/J mice (5 weeks old) were obtained from the Jackson Laboratory and were housed in polycarbonate cages (5 mice/cage) in animal quarters maintained at 24°±1° C. with 12 hours of light and 12 hours of darkness each day. One week after arrival, the mice were placed on a show diet containing DHEA, 16, or 21 at 0.36%. Animals were weighed weekly.

[6] = test system: rat uterus; experiment: Estrogenic and anti-estrogenic activity (uterine weight, s.c., CD rats); type: in vivo, rat (female CD); conditions: for Mean Uterine Weight ± S.D.: 60 mg/kg s.c., 3 days, Tables 16 and 17
Description: Female CD rats, 26-27 days old, were used. Rats were injected subcutaneously for 3 days with either DHEA or 16 in propylene glycol. Control rats received propylene glycol alone. The rats were killed on the 4th day and the uteri were removed and weighed.
Female CD rats, 26-27 days old, were injected subcutaneously for 3 days with one of the compounds of the present invention at 60 mg/kg in propylene glycol. Controls received propylene glycol alone. On the 4th day the rats were killed and the uteri were dissected out and weighed.

[7] = test system: seminal vesicles plus prostate glands; experiment: Androgenic and anti-androgenic activity (seminal vesicle plus prostate weight); type: in vivo, mouse (male A/J)
Description: Male A/J mice (5 weeks old) were obtained from the Jackson Laboratory and were housed in polycarbonate cages (5 mice/cage) in animal quarters maintained at 24°±1° C. with 12 hours of light and 12 hours of darkness each day. One week after arrival, mice were placed on a chow diet containing either 0.18% or 0.09% 16 or without steroid. Mice were weighed weekly. After 4 weeks, the mice were killed, and the seminal vesicles plus prostate glands were dissected out and weighed.
as §1

[8] = test system: seminal vesicles plus prostate glands; experiment: as above; type: in vivo, mouse (male A/J); conditions: con't. experiment; five weeks; DHEA 0.54%; n = 5
[9] = test system: rat uterus; experiment: Uterotrophic test for estrogenic activity, oral; type: in vivo; conditions: 14 μg/kg oral; 3 days; n = 6
Source text: Uterotrophic Test for Estrogenic Activity. Compound 16 vs. DHEA and Estradiol-benzoate. Compounds Given by Oral Administration.
Twenty-two day old rats were obtained from Charles River Laboratories. Animals were used at 29 days of age. Test steroids were suspended by homogenization in sesame oil. Rats were orally intubated at 1-2 P.M. for 3 days with a test steroid in sesame oil or with sesame oil alone (control). On the 4th day the animals were killed and the uteri were removed and weighed.

[10] = test system: (3H) DMBA binding to skin DNA; experiment: [3H]DMBA binding to mouse skin DNA, topical steroid; type: in vivo, mouse (A/J); conditions: topical; A/J mouse
Source text: Skin tumors can be induced in the mouse either by weekly application of a carcinogen such as […] (DMBA), or alternatively,by a single sub-threshold dose of the carcinogen followed by twice weekly applications of the tumor promoter tetradecanoylphorbol-13-acetate (TPA). In order to exert its carcinogenic effect, DMBA must be metabolized by an NADPH-dependent mixed-function oxidase to chemically reactive intermediates which bind covalently to DNA and produce mutations leading to malignant transformation. […] This effect of DHEA very probably is a result of the inhibition of G6PDH and lowering of the intracellular pool of NADPH, which is a co-factor for the mixed-function oxidase activation of DMBA.
Binding of [^3 H]DMBA to mouse skin DNA was determined as described in Pashko, L. L., and Schwartz, A. G. (1983), Effect of food restriction, dehydroepiandrosterone, or obesity on the binding of ^3 H-7,12-dimethylbenz(a)-anthracene to mouse skin DNA, J. Gerontol., 38, 8-12. Values are mean±SD for 3 individual determinations, with pooled tissue from 2 mice used for each determination. DHEA or testosterone (400 ug in 0.2 ml acetone) was applied to the skin one hour before [^3 H]DMBA. The mean weight of the food restricted mice was 18.5±1.0 gm, n=6, of the ad libitum fed, 27.4±1.0 gm, n=6, of the ad libitum fed treated with DHEA, 28.2±0.9 gm, n=6, and of the ad libitum fed treated with testosterone, 28.3±0.9 gm, n=6, following two weeks of feeding. The average food consumed was, in gm/mouse/day, 2.2, 3.8, 3.8 and 4.0 for the food restricted, ad libitum fed, ad libitum fed plus DHEA, and ad libitum fed plus testosterone groups, respectively.

T1 sequence (F1MMK2 31-70): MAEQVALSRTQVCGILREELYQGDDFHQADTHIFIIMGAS
T1 sequence (F1MMK2 101-575): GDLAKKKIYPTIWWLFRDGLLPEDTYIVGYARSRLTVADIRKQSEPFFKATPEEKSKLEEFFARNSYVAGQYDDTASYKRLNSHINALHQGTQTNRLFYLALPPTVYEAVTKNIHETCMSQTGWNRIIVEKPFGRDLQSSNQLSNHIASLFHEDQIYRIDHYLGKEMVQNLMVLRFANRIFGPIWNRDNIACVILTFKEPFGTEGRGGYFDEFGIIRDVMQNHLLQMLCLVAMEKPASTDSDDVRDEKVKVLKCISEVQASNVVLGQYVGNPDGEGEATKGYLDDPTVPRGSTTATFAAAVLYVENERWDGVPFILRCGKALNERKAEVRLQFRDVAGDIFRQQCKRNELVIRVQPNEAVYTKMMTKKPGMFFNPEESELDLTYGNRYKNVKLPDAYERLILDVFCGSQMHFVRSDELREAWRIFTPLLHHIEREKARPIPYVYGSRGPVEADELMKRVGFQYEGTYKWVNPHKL

SMILES: C[C@]12CCC(Cl)CC1=CC[C@@H]1[C@@H]2CC[C@]2(C)C(=O)CC[C@@H]12 (stereo partly drawn) [3 chloro-5-androstene-17-one]
- estrogenic, anti-estrogenic, androgenic, anti-androgenic activity (in words) [1]: without any demonstrable estrogenic, androgenic, anti-androgenic or anti-estrogenic activity

SMILES: C[C@H]1CC[C@@]2(C)C(=CC[C@@H]3[C@@H]2CC[C@]2(C)C(=O)[C@H](O)C[C@@H]32)C1 [Compound 19]
- G6PDH inhibition compared with DHEA (in words) [2]: more effective inhibitorsof G6PDH than is DHEA
- inhibition at 1 µM [2]: 29%
- inhibition at 10 µM [2]: 64%
- TPA stimulation in 3H-thymidine incorporation (in words) [3]: to a degree comparable to that produced by food restriction at doses well below 400 mg/kg
- SPECIFIC ACTIVITY ([3H]DMBA bound to skin DNA) ([4]; 400 mg/kg p.o.): 20.4 ± 1.1 cpm/ug DNA
- anti-weight effect (in words) [5]: do not produce an anti-weight effect
- weekly weight (Table 13) ([5]; week 0): 21.1 ± 0.8
- weekly weight (Table 13) ([5]; week 1): 19.1 ± 0.9
- weekly weight (Table 13) ([5]; week 2): 18.4 ± 1.0
- weekly weight (Table 13) ([5]; week 3): 18.7 ± 1.4
- weekly weight (Table 13) ([5]; week 4): 19.7 ± 1.1
- weekly weight (Table 13) ([5]; week 5): 20.6 ± 0.4
- Mean Uterine Weight ± S.D. [6]: 2.16 ± 0.5 mg/100 gm body weight
- estrogenic / anti-estrogenic effect, uterine weight (in words) ([6]; s.c., 60 mg/kg or higher, female CD rats): no apparent estrogenic nor anti-estrogenic activity
- androgenic / anti-androgenic effect, seminal vesicle plus prostate weight (in words) ([7]; diet, male A/J mice): no significant effect on seminal vesicle plus prostate gland weight
- estrogenic, anti-estrogenic, androgenic, anti-androgenic activity (in words) [1]: neither estrogenic, anti-estrogenic, androgenic, nor anti-androgenic activity
- Mean Seminal Vesicle plus Prostate Weight ± S.D. [8]: 6.45 ± 0.65 mg/100 gm body weight

SMILES: C[C@H]1CC[C@@]2(C)C(=CC[C@@H]3[C@@H]2CC[C@]2(C)C(=O)[C@H](F)C[C@@H]32)C1 [Compound 20]
- inhibition at 1 µM [2]: 55%
- inhibition at 10 µM [2]: 46%
- TPA stimulation in 3H-thymidine incorporation (in words) [3]: to a degree comparable to that produced by food restriction at doses well below 400 mg/kg
- SPECIFIC ACTIVITY ([3H]DMBA bound to skin DNA) ([4]; 100 mg/kg p.o.): 48.4 ± 2.6 cpm/ug DNA
- SPECIFIC ACTIVITY ([3H]DMBA bound to skin DNA) ([4]; 200 mg/kg p.o.): 43.7 ± 1.5 cpm/ug DNA
- anti-weight effect (in words) [5]: do not produce an anti-weight effect

SMILES: C[C@H]1CC[C@@]2(C)C(=CC[C@@H]3[C@@H]2CC[C@]2(C)C(=O)[C@H](C)C[C@@H]32)C1 [Compound 21]
- G6PDH inhibition compared with DHEA (in words) [2]: more effective inhibitorsof G6PDH than is DHEA
- inhibition at 1 µM [2]: 36%
- inhibition at 10 µM [2]: 48%
- mean weekly weight ± S.D. ([5]; week 0): 22.7 ± 1.9 grams
- mean weekly weight ± S.D. ([5]; week 1): 20.1 ± 2.1 grams
- mean weekly weight ± S.D. ([5]; week 2): 19.9 ± 2.3 grams
- mean weekly weight ± S.D. ([5]; week 3): 22.2 ± 2.3 grams
- Mean Uterine Weight ± S.D. [6]: 1.76 ± 0.21 mg/100 gm body weight
- Mean Seminal Vesicle plus Prostate Weight ± S.D. ([7]; 0.36% of diet, 4 weeks, n = 5): 5.1 ± 1.4 mg/100 gm body weight
- estrogenic, anti-estrogenic, androgenic, anti-androgenic activity (in words) [1]: neither estrogenic, anti-estrogenic, androgenic, nor anti-androgenic activity

SMILES: C[C@]12CC[C@@H]3c4ccc(OC(=O)c5ccccc5)cc4CC[C@H]3[C@@H]1CC[C@@H]2O [Estradiol-benzoate, reference compound]
- Mean Uterine Weight [9]: 244 ± 44 Mgs

SMILES: C[C@]12CC[C@H]3[C@@H](CCC4=CC(=O)CC[C@@]43C)[C@@H]1CC[C@@H]2O [testosterone]
- rate of binding of topically applied 3H-DMBA to skin DNA (in words) [10]: without inhibitory effect
